The values that follow come from patent publication US8658791B2, “2-substituted-6-amino-5-alkyl, alkenyl or alkynyl-4-pyrimidinecarboxylic acids and 6-substituted-4-amino-3-alkyl, alkenyl or alkynyl picolinic acids and their use as herbicides” (Dow AgroSciences, LLC, priority 2007, dated 2014).

Data set [1] concerns lambsquarter (Chenopodium album). Briefly: General postemergence herbicidal activity, CHEAL. It counts as in vivo. The conditions noted are these: Chenopodium album, post-emergence, 336 h, postemergence spray, visual score after 14 days, 0 = no injury, 100 = complete kill, read-out: Post-emergent Weed Control CHEAL; for pest or weed control at 280 g/ha: 280 g ai/ha; for pest or weed control at 70 g/ha: 70 g ai/ha; for pest or weed control at 140 g/ha: 140 g ai/ha. Summed up:
(§1)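 Plants grown in greenhouse (~15 h photoperiod, 23-29 °C day) to first or second true leaf stage were sprayed with compound in acetone/DMSO-based aqueous spray mix containing crop oil concentrate and surfactant at 187 L/ha, as highest rate plus 1/2X to 1/16X serial dilutions. Injury scored visually after 14 days, 0–100%.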

The test system of data set [2] is wild poinsettia (Euphorbia heterophylla). Briefly: General postemergence herbicidal activity, EPHHL. The class given is in vivo. The conditions noted are these: Euphorbia heterophylla, post-emergence, 336 h, postemergence spray, visual score after 14 days, 0 = no injury, 100 = complete kill, read-out: Post-emergent Weed Control EPHHL; for pest or weed control at 280 g/ha: 280 g ai/ha; for pest or weed control at 70 g/ha: 70 g ai/ha; for pest or weed control at 140 g/ha: 140 g ai/ha. In a few lines: as §1

Data set [3] has as its system velvetleaf (Abutilon theophrasti). As to the kind of experiment: General postemergence herbicidal activity, ABUTH. The class given is in vivo. The conditions noted are these: Abutilon theophrasti, post-emergence, 336 h, postemergence spray, visual score after 14 days, 0 = no injury, 100 = complete kill, read-out: Post-emergent Weed Control ABUTH; for pest or weed control at 280 g/ha: 280 g ai/ha; for pest or weed control at 70 g/ha: 70 g ai/ha; for pest or weed control at 140 g/ha: 140 g ai/ha. In a few lines: as §1

Data set [4] shares this test system. As to the kind of experiment: General preemergence herbicidal activity, ABUTH. The class given is in vivo. Particulars: 140 g ai/ha, applied to soil surface, visual score after 20-22 days, 0 = no injury, 100 = complete kill or no emergence, read-out: Pre-emergent Weed Control ABUTH. An excerpt:
(§2) Seeds of the desired test plant species were planted in a soil matrix prepared by mixing a loam soil (43 percent silt, 19 percent clay, and 38 percent sand, with a pH of about 8.1 and an organic matter content of about 1.5 percent) and sand in a 70 to 30 ratio. The soil matrix was contained in plastic pots with a surface area of 127 square centimeters. When required to ensure good germination and healthy plants, a fungicide treatment and/or other chemical or physical treatment was applied. A weighed amount, determined by the highest rate to be tested, of each test compound was placed in a 25 mL glass vial and was dissolved in 6 mL of a 97:3 v/v (volume/volume) mixture of acetone and DMSO to obtain concentrated stock solutions. […] The stock solutions obtained were diluted with 18 mL of a 0.1% v/v aqueous solution of Tween® 20 surfactant to obtain spray solutions containing the highest application rate. Additional application rates were obtained by serial dilution of 12 mL of the high rate solution into a solution containing 3 mL of 97:3 v/v mixture of acetone and DMSO and 9 mL of the 0.1% v/v aqueous solution of Tween® 20 surfactant to obtain 1/2X, 1/4X, 1/8X and 1/16X rates of the high rate. Compound requirements are based upon a 12 mL application volume at a rate of 187 L/ha. Formulated compounds were applied to the soil surface with an overhead Mandel track sprayer equipped with a […] nozzles calibrated to deliver 187 L/ha over an application area of 0.503 square meters at a spray height of 18 inches (43 cm) above the soil surface. Control pots were sprayed in the same manner with the solvent blank. The treated pots and control pots were placed in a greenhouse maintained with an approximate 15 hour photoperiod and temperatures of about 23-29° C. during the day and 22-28° C. during the night. Nutrients and water were added on a regular basis and supplemental lighting was provided with overhead metal halide 1000-Watt lamps as necessary. The water was added by top-irrigation. After 20-22 days, the condition of the test plants that germinated and grew as compared with that of the untreated plants that emerged and grew was determined visually and scored on a scale of 0 to 100 percent where 0 corresponds to no injury and 100 corresponds to complete kill or no emergence.

The subject of data set [5] is rice (Oryza sativa). As to the kind of experiment: General postemergence herbicidal activity, ORYSA. The conditions noted are these: Oryza sativa, post-emergence, 336 h, postemergence spray, visual score after 14 days, 0 = no injury, 100 = complete kill, read-out: Post-emergent Weed Control ORYSA; for plant injury at 280 g/ha: 280 g ai/ha; for plant injury at 70 g/ha: 70 g ai/ha; for plant injury at 140 g/ha: 140 g ai/ha. The class given is in vivo. In a few lines:
as §1

The subject of data set [6] is rice (Oryza sativa). Briefly: General preemergence herbicidal activity, ORYSA. The class given is in vivo. The conditions noted are these: 140 g ai/ha, applied to soil surface, visual score after 20-22 days, 0 = no injury, 100 = complete kill or no emergence, read-out: Pre-emergent Weed Control ORYSA.
Description: as §2

The subject of data set [7] is barnyardgrass (Echinochloa crus-galli). Briefly: General postemergence herbicidal activity, ECHCG. It counts as in vivo. Particulars: Echinochloa crus-galli, post-emergence, 336 h, postemergence spray, visual score after 14 days, 0 = no injury, 100 = complete kill, read-out: Post-emergent Weed Control ECHCG; for pest or weed control at 280 g/ha: 280 g ai/ha; for pest or weed control at 70 g/ha: 70 g ai/ha; for pest or weed control at 140 g/ha: 140 g ai/ha. In a few lines:
as §1

The subject of data set [8] is wild poinsettia (Euphorbia heterophylla). As to the kind of experiment: General preemergence herbicidal activity, EPHHL. The conditions noted are these: 140 g ai/ha, applied to soil surface, visual score after 20-22 days, 0 = no injury, 100 = complete kill or no emergence, read-out: Pre-emergent Weed Control EPHHL. It counts as in vivo.
Description: as §2

In data set [9] the test system is lambsquarter (Chenopodium album). Briefly: General preemergence herbicidal activity, CHEAL. The conditions noted are these: 140 g ai/ha, applied to soil surface, visual score after 20-22 days, 0 = no injury, 100 = complete kill or no emergence, read-out: Pre-emergent Weed Control CHEAL. It counts as in vivo.
Description: as §2

In data set [10] the test system is barnyardgrass (Echinochloa crus-galli). As to the kind of experiment: General preemergence herbicidal activity, ECHCG. The class given is in vivo. The conditions noted are these: 140 g ai/ha, applied to soil surface, visual score after 20-22 days, 0 = no injury, 100 = complete kill or no emergence, read-out: Pre-emergent Weed Control ECHCG.
Description: as §2

With `CCOC(=O)c1nc(C2CC2)nc(N)c1C` [Compound 1, 6-Amino-2-cyclopropyl-5-methylpyrimidine-4-carboxylic acid ethyl ester], the pest or weed control at 280 g/ha in data set [1] amounted to 80%; in data set [2] it was 100%; in data set [3], 15%; in data set [7] it was 0%. The pest or weed control at 140 g/ha in data set [4] was found to be 80%; in [8], 100%; in data set [9], 100%; in data set [10], 80%. Besides, in the data set with rice (Oryza sativa) [5], the plant injury at 280 g/ha was found to be 0%. In addition, the plant injury at 140 g/ha in the data set on rice (Oryza sativa) [6] worked out at 30%.
In the case of `C=Cc1c(N)nc(-c2ccc(Cl)c(OC)c2F)nc1C(=O)OC` [Compound 3, 6-Amino-2-(4-chloro-2-fluoro-3-methoxyphenyl)-5-vinylpyrimidine-4-carboxylic acid methyl ester], the pest or weed control at 70 g/ha was 100% in data set [1], 100% in data set [2], 100% in data set [3] and 95% in data set [7]. The pest or weed control at 140 g/ha in data set [4] was determined as 80%; in [8], 100%; in data set [9] it was 100%; in data set [10], 80%. Also, in the data set with rice (Oryza sativa) [5], the plant injury at 70 g/ha was 15%. Moreover, in the data set with rice (Oryza sativa) [6], the plant injury at 140 g/ha stood at 30%.
`C/C=C\c1c(N)nc(-c2ccc(Cl)c(OC)c2F)nc1C(=O)OC` [Compound 23, 6-Amino-2-(4-chloro-2-fluoro-3-methoxyphenyl)-5-((Z)-propenyl)pyrimidine-4-carboxylic acid methyl ester] had a melting point of 91 to 93 °C. Moreover, the pest or weed control at 70 g/ha in [1] was found to be 95%. For the same compound, the pest or weed control at 70 g/ha in [2] was 100%. For the same compound, the pest or weed control at 70 g/ha in data set [3] was found to be 85%. For the same compound, the plant injury at 70 g/ha in the data set with rice (Oryza sativa) [5] was 10%. In data set [7], the pest or weed control at 70 g/ha was determined as 95%.
Turning to `COc1c(Cl)ccc(-c2nc(N)c(C(C)OC)c(C(=O)O)n2)c1F` (centres unmarked) [Compound 40, 6-Amino-2-(4-chloro-2-fluoro-3-methoxyphenyl)-5-(1-methoxyethyl)pyrimidine-4-carboxylic acid], the melting point was in the range of 165 to 167 °C. Moreover, the pest or weed control at 280 g/ha in data set [1] stood at 100%. The pest or weed control at 280 g/ha in data set [2] was found to be 100%. Moreover, in data set [3], the pest or weed control at 280 g/ha turned out to be 85%. Besides, the plant injury at 280 g/ha with rice (Oryza sativa) [5] amounted to 35%. Further, in [7], the pest or weed control at 280 g/ha came to 90%.
In the case of `C=Cc1c(N)nc(-c2ccc(Cl)c(OC)c2F)nc1C(=O)O` [Compound 41, 6-Amino-2-(4-chloro-2-fluoro-3-methoxyphenyl)-5-vinylpyrimidine-4-carboxylic acid], the melting point lay in the range of 167 to 168 °C. Further, the pest or weed control at 70 g/ha in [1] was determined as 100%. The pest or weed control at 70 g/ha in [2] was found to be 100%. The pest or weed control at 70 g/ha in data set [3] is 100%. For the same compound, in the data set on rice (Oryza sativa) [5], the plant injury at 70 g/ha came out at 65%. Besides, in data set [7], the pest or weed control at 70 g/ha was 100%.
In the case of `C=Cc1c(N)nc(-c2ccc(Cl)c(F)c2F)nc1C(=O)O` [Compound 44, 6-amino-2-(4-chloro-2,3-difluorophenyl)-5-vinylpyrimidine-4-carboxylic acid], the melting point was in the range of 170 to 172 °C. Further, the pest or weed control at 70 g/ha in data set [1] worked out at 100%. Further, the pest or weed control at 70 g/ha in data set [2] was determined as 100%. The pest or weed control at 70 g/ha in data set [3] turned out to be 100%. Besides, the plant injury at 70 g/ha in the data set with rice (Oryza sativa) [5] turned out to be 15%. The pest or weed control at 70 g/ha in data set [7] came out at 100%.
As to `C=Cc1c(N)nc(-c2cc(F)c(Cl)cc2F)nc1C(=O)O` [Compound 46, 6-Amino-2-(4-chloro-2,5-difluorophenyl)-5-vinylpyrimidine-4-carboxylic acid], the melting point lay in the range of 81 to 83 °C. Besides, in data set [1], the pest or weed control at 140 g/ha worked out at 100%. Further, the pest or weed control at 140 g/ha in data set [2] turned out to be 95%. For the same compound, the pest or weed control at 140 g/ha in data set [3] stood at 90%. Further, the plant injury at 140 g/ha in the data set with rice (Oryza sativa) [5] was 40%. In addition, in data set [7], the pest or weed control at 140 g/ha was 90%.
Compound `C=Cc1c(N)nc(-c2ccc(Cl)c(C(C)F)c2F)nc1C(=O)O` (centres unmarked) [Compound 47, 6-Amino-2-(4-chloro-2-fluoro-3-(1-fluoroethyl)phenyl)-5-vinylpyrimidine-4-carboxylic acid] showed a melting point of 150 to 153 °C. The pest or weed control at 70 g/ha in data set [1] turned out to be 100%. Further, in data set [2], the pest or weed control at 70 g/ha came to 100%. The pest or weed control at 70 g/ha in data set [3] came to 90%. Further, in the data set on rice (Oryza sativa) [5], the plant injury at 70 g/ha was found to be 50%. The pest or weed control at 70 g/ha in data set [7] is 100%.
`C=Cc1c(N)nc(C2CC2)nc1C(=O)O` [Compound 57, 6-amino-2-cyclopropyl-5-vinylpyrimidine-4-carboxylic acid] registered a melting point of 187 to 189 °C. The pest or weed control at 140 g/ha in [1] was found to be 100%. For the same compound, in data set [2], the pest or weed control at 140 g/ha turned out to be 100%. Moreover, the pest or weed control at 140 g/ha in [3] was determined as 90%. In the data set on rice (Oryza sativa) [5], the plant injury at 140 g/ha is 5%. For the same compound, the pest or weed control at 140 g/ha in data set [7] turned out to be 30%.
Turning to `C=Cc1c(N)cc(-c2ccc(Cl)cc2F)nc1C(=O)O` [Compound 60, 4-Amino-6-(4-chloro-2-fluorophenyl)-3-vinylpyridine-2-carboxylic acid], the melting point was in the range of 209 to 211 °C. For the same compound, the pest or weed control at 140 g/ha in [1] worked out at 100%. In [2], the pest or weed control at 140 g/ha was 80%. Further, the pest or weed control at 140 g/ha in data set [3] is 70%. Also, in the data set on rice (Oryza sativa) [5], the plant injury at 140 g/ha is 15%. Besides, the pest or weed control at 140 g/ha in data set [7] came to 35%.
